Data as given in ChEMBL document CHEMBL1133332, “Conversion of a polysaccharide to nitric oxide-releasing form. Dual-mechanism anticoagulant activity of diazeniumdiolated heparin” (2000).

Columns and labels:
Homo sapiens [1] = species on record: Homo sapiens; assay: Compound (at 25 micro g/ml) was tested for antithrombotic activity in presence of heparin; type: functional
Homo sapiens [2] = species on record: Homo sapiens; assay: compound (at 25 micro g/ml) was tested for antithrombotic activity; type: functional

Compound	Thrombin time (Homo sapiens [1]) [s]	Thrombin time (Homo sapiens [2]) [s]
COCO/N=[N+](\[O-])N1CCN(C[C@H]2O[C@H](OC)[C@H](NS(=O)(=O)O)[C@@H](OS(=O)(=O)O)[C@@H]2O[C@@H]2O[C@H](C(=O)O)[C@@H](OC)[C@H](O)[C@H]2O)CC1 [HEPARIN/DIAZENIUMDIOLATE CONJUGATE]	80	–
CO[C@H]1O[C@H](CN2CCNCC2)[C@@H](O[C@@H]2O[C@H](C(=O)O)[C@@H](OC)[C@H](O)[C@H]2O)[C@H](OS(=O)(=O)O)[C@H]1NS(=O)(=O)O [HEPARIN/DIAZENIUMDIOLATE CONJUGATE]	31	–
CO[C@H]1O[C@H](COS(=O)(=O)O)[C@@H](O[C@@H]2O[C@H](C(=O)O)[C@@H](OC)[C@H](O)[C@H]2O)[C@H](OS(=O)(=O)O)[C@H]1NS(=O)(=O)O [HEPARIN/DIAZENIUMDIOLATE CONJUGATE]	–	92
